Here are results for 2 molecules from patent US8426387B2, “Treatments for cancer” (priority 2006, dated 2013).

In assay [1] the test system is DU-145 androgen receptor negative human prostate cell line. How it is done: (§1) The relationship between diet and cancer is an active area of investigation. […] Fruits and vegetables are known to be good sources of dietary boron. To explore a possible cellular mechanism for the effect of boron on prostate cancer 1 mM boric acid was added to several cancer cell lines; three human prostate, and for comparison, five human breast cell lines.

The next assay relates to DU-145 cell line. The note with it: 1 mM boron. How it is done:
as §1

A further assay concerns DU-145. As to conditions: 1 mM boric acid. How it is done: as §1
Assay [2] concerns a breast cancer cell line. As to conditions: 1 mM boron. The method, then:
as §1

Assay [3] has as its system androgen receptor positive and receptor negative human prostate cancer cell lines. As to conditions: 1 mM boric acid; RPMI1640 media. The method, then: as §1
In assay [4] the test system is estrogen receptor negative human breast cancer cell lines. The note with it: 1 mM boric acid; two cell lines; MEM supplemented with 10% FBS and 25 mM HEPES. The method, then: as §1
Assay [5] has as its system estrogen receptor positive cell lines. Description: cells. The method, then:
as §1

Assay [6] addresses T1, DU145 cell surface-bound uPA (Homo sapiens, UniProt P00749).
T1 construct: endogenous in cells; host or cells: DU145 prostate carcinoma cells
The note with it: DU145 cells; read-out: Ki value in cell surface-mediated plasminogen activation; cited from earlier work.

Turning to `OB(O)O` [boric acid], the growth result in assay [1] (1 mM boric acid, supplemented RPMI media) was “completely arrested”. In addition, the “reversibility of growth inhibition” value in assay [1] (boric acid removed on Day 3, cell growth resumed by Day 6) was “reversible”. Also, the apoptosis or necrosis result (in the assay with DU-145 cell line; in assay [2]) was “does not induce apoptosis or necrosis” each time. For the same molecule, in the assay with DU-145, the “cell cycle block or apoptosis” value is “does not block the cell cycle or induce apoptosis”. In addition, the growth response result in assay [3] is “failed to show a response”. Further, the growth inhibition result is “did not show growth inhibition” in assay [4] and “failed to exhibit growth inhibition” in assay [5] (1 mM boric acid, two estrogen receptor positive cell lines, MEM media or RPMI1640, supplemented). Moreover, the inhibition at 1000 µM in assay [5] (Homo sapiens, 216 h, read-out: inhibition in growth) was 20%. Moreover, the “apoptosis by flow cytometry” value in assay [5] (third estrogen receptor positive breast cancer cell line, preliminary results) is listed as “may be inducing apoptosis”.

B1: rMaspin(i): Purified recombinant maspin produced in baculovirus-infected Spodoptera frugiperda Sf9 insect cells (protein, UniProt P36952 1-375, looked up)
Serpin B5: MDALQLANSAFAVDLFKQLCEKEPLGNVLFSPICLSTSLSLAQVGAKGDTANEIGQVLHFENVKDVPFGFQTVTSDVNKLSSFYSLKLIKRLYVDKSLNLSTEFISSTKRPYAKELETVDFKDKLEETKGQINNSIKDLTDGHFENILADNSVNDQTKILVVNAAYFVGKWMKKFSESETKECPFRVNKTDTKPVQMMNMEATFCMGNIDSINCKIIELPFQNKHLSMFILLPKDVEDESTGLEKIEKQLNSESLSQWTNPSTMANAKVKLSIPKFKVEKMIDPKACLENLGLKHIFSEDTSDFSGMSETKGVALSNVIHKVCLEITEDGGDSIEVPGARILQHKDELNADHPFIYIIRHNKTRNIIFFGKFCSP
modifications: recombinant, Sf9 baculovirus-expressed
notes: Purified recombinant maspin produced in baculovirus-infected Spodoptera frugiperda Sf9 insect cells
On to B1, for which the Ki in assay [6] is 20 nM.

As usually defined, the inhibition is how much of the control response was suppressed. As usually defined, the Ki is a dissociation constant, usually derived from enzyme kinetics or from competition with a known ligand.
